Where a SMILES comes first, the peptide text is derived from it.
What was measured:
[1] = % Viability non-Wnt responsive cells
β-catenin = biological target: T1, β-catenin (Homo sapiens, UniProt P35222); assay: KD50 measurement using competitive fluorescence polarization (FP) with labelled TCF4; type: binding; conditions: fluorescence polarization, β-catenin; for Kd: read-out: β-Cat FP KD
T1 sequence (P35222 1-781): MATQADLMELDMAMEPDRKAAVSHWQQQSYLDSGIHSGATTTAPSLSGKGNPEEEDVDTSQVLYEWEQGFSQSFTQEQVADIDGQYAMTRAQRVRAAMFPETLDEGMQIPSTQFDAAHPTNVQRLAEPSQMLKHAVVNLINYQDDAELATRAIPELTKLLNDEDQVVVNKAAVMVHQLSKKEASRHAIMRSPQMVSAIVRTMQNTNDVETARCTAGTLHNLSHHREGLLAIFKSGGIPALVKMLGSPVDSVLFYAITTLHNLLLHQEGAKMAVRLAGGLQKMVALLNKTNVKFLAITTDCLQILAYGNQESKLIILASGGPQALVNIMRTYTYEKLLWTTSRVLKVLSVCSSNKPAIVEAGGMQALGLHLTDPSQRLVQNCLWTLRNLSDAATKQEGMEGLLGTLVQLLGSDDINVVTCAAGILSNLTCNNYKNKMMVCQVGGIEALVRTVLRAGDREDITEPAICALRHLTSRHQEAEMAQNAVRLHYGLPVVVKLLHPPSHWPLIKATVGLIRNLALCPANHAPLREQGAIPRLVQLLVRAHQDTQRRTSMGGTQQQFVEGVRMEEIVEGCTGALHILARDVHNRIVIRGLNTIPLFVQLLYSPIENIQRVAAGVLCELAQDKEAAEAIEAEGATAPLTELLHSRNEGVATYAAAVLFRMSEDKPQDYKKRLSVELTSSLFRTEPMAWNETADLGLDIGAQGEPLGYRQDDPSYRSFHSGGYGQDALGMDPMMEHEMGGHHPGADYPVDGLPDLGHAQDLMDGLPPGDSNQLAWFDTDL
Procedure, shortened: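 First, β-catenin at 100 nM is mixed with 5 nM labelled TCF4 at room temperature. Next, compound is added across serial dilutions (10 nM to 30 uM). Finally, fluorescence polarization is measured (ex 470 nm, em 520 nm); experiments are done three times.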

[2] = biological target: Wnt-responsive promoter (TCF/LEF); assay: Wnt-dependent luciferase reporter assay; type: cell-based, murine
Procedure, shortened: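 Murine 3T3 fibroblasts carrying a TCF/LEF-driven luciferase reporter, stimulated with Wnt3a in the presence of increasing peptide concentrations or vehicle. Luminescence inhibition gave EC50 values in uM.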

Row | Compound | viability [1] [%] | Kd (β-catenin) [µM] | EC50 [2] [µM] | β-Cat FP Hill slope (β-catenin)
1 | CC[C@H](C)[C@H](NC(=O)[C@H](CC(C)C)NC(=O)[C@H](Cc1ccccc1)NC(=O)[C@H](Cc1c[nH]c2ccccc12)NC(=O)[C@H](Cc1c[nH]c2ccccc12)NC(=O)[C@H](CCCNC(=N)N)NC(=O)[C@H](CO)NC(=O)[C@@H](N)Cc1c[nH]c2ccccc12)C(=O)N[C@@H](CO)C(=O)N[C@@H](Cc1ccccc1)C(=O)N[C@@H](Cc1c[nH]c2ccccc12)C(N)=O [compound 92] (H-WSRWWFLISFW-NH2) | 87.8 | > 30 | 15 to 22.5 | 
2 | CSCC[C@H](N)C(=O)N[C@@H](Cc1c[nH]c2ccccc12)C(=O)N[C@@H](Cc1ccccc1)C(=O)N[C@@H](CC(C)C)C(=O)N[C@@H](C)C(=O)N[C@@H](CO)C(=O)N[C@@H](Cc1ccccc1)C(=O)N[C@@H](Cc1c[nH]c2ccccc12)C(=O)NCC(=O)O [compound 158] (H-MWFLASFWG-OH) | 95.6 | > 30 | 7.5 to 15 | 
3 | CC[C@H](C)[C@H](NC(=O)[C@H](CC(C)C)NC(=O)[C@H](Cc1ccccc1)NC(=O)[C@H](Cc1c[nH]c2ccccc12)NC(=O)[C@@H](N)CCSC)C(=O)N[C@@H](CO)C(=O)N[C@@H](Cc1ccccc1)C(=O)N[C@@H](Cc1c[nH]c2ccccc12)C(=O)N[C@@H](CCC(=O)O)C(=O)NCC(=O)O [compound 47] (H-MWFLISFWEG-OH) | 103 | 0.4 to 1 | < 7.5 | 2.29
4 | CSCC[C@H](NC(=O)[C@H](CCCNC(=N)N)NC(=O)[C@H](CO)NC(=O)[C@@H](N)CCSC)C(=O)N[C@@H](Cc1c[nH]c2ccccc12)C(=O)N[C@@H](Cc1ccccc1)C(=O)N[C@@H](CC(C)C)C(=O)N[C@@H](Cc1ccccc1)C(=O)N[C@@H](CO)C(=O)N[C@@H](Cc1ccccc1)C(=O)N[C@@H](Cc1c[nH]c2ccccc12)C(=O)NCC(=O)O [compound 63] (H-MSRMWFLFSFWG-OH) | 97.9 | > 30 | < 7.5 | 
5 | CC[C@H](C)[C@@H]1NC(=O)[C@H](CC(C)C)NC(=O)[C@H](Cc2ccccc2)NC(=O)[C@H](Cc2c[nH]c3ccccc23)NC(=O)[C@H](CCSC)NC(=O)[C@@H](NC(C)=O)CCCCNC(=O)CC[C@@H](C(=O)O)NC(=O)[C@H](Cc2c[nH]c3ccccc23)NC(=O)[C@H](Cc2ccccc2)NC(=O)[C@H](CS)NC1=O [compound 186] (HELM PEPTIDE1{[ac].K.M.W.F.L.I.C.F.W.E}$PEPTIDE1,PEPTIDE1,2:R3-11:R3$$$V2.0) | 96.4 | 0.4 to 1 | > 30 | 1.07
6 | CC[C@H](C)[C@H](NC(=O)[C@H](CC(C)C)NC(=O)[C@H](Cc1ccccc1)NC(=O)[C@H](Cc1c[nH]c2ccccc12)NC(=O)[C@H](CCSC)NC(=O)[C@H](CCCNC(=N)N)NC(=O)[C@H](CO)NC(=O)[C@@H](N)CCSC)C(=O)N[C@@H](CO)C(=O)N[C@@H](CC(C)C)C(=O)N[C@@H](Cc1c[nH]c2ccccc12)C(=O)NCC(=O)O [compound 68] (H-MSRMWFLISLWG-OH) | 91.2 | > 30 | 7.5 to 15 | 
7 | CC[C@H](C)[C@H](NC(=O)[C@H](CC(C)C)NC(=O)[C@H](Cc1ccccc1)NC(=O)[C@H](Cc1c[nH]c2ccccc12)NC(=O)[C@H](CCSC)NC(=O)[C@H](CCCNC(=N)N)NC(=O)[C@H](CO)NC(=O)[C@@H](N)Cc1c[nH]c2ccccc12)C(=O)N[C@@H](CO)C(=O)N[C@@H](Cc1ccccc1)C(=O)N[C@@H](Cc1c[nH]c2ccccc12)C(N)=O [compound 79] (H-WSRMWFLISFW-NH2) | 98.8 | > 30 | > 30 | 
8 | CC[C@H](C)[C@H](NC(=O)[C@H](CC(C)C)NC(=O)[C@H](Cc1ccccc1)NC(=O)[C@H](Cc1c[nH]c2ccccc12)N(C)C(=O)[C@H](CCSC)NC(=O)[C@H](CCCNC(=N)N)NC(=O)[C@@H](NC(=O)[C@@H](N)CCSC)[C@@H](C)CC)C(=O)N[C@@H](CO)C(=O)N[C@@H](Cc1ccccc1)C(=O)N[C@@H](Cc1c[nH]c2ccccc12)C(=O)NCC(=O)O [compound 53] (HELM PEPTIDE1{M.I.R.M.[meW].F.L.I.S.F.W.G}$$$$V2.0) | 103 | > 30 | > 30 | 
9 | CC[C@H](C)[C@H](NC(=O)[C@H](CC(C)C)NC(=O)[C@H](Cc1ccccc1)NC(=O)[C@H](Cc1c[nH]c2ccccc12)NC(=O)[C@H](Cc1c[nH]c2ccccc12)NC(=O)[C@H](CCCNC(=N)N)NC(=O)[C@H](CO)NC(=O)[C@@H](N)CCCCN)C(=O)N[C@@H](CO)C(=O)N[C@@H](Cc1ccccc1)C(=O)N[C@@H](Cc1c[nH]c2ccccc12)C(N)=O [compound 95] (H-KSRWWFLISFW-NH2) | 109 | > 30 | > 30 | 
10 | CC[C@H](C)[C@H](NC(=O)[C@H](CC(C)C)NC(=O)[C@H](Cc1ccccc1)NC(=O)[C@H](Cc1c[nH]c2ccccc12)NC(=O)[C@@H](N)CCSC)C(=O)N[C@@H](CO)C(=O)N[C@@H](Cc1ccccc1)C(=O)N[C@@H](C)C(=O)NCC(=O)O [compound 161] (H-MWFLISFAG-OH) | 103 | > 30 | 15 to 22.5 | 
11 | CC[C@H](C)[C@H](NC(=O)[C@H](Cc1c[nH]c2ccccc12)NC(=O)[C@@H](N)CCSC)C(=O)N[C@@H](CC(C)C)C(=O)N[C@H](C(=O)N[C@@H](CO)C(=O)NC(C)(Cc1ccccc1)C(=O)N[C@@H](Cc1c[nH]c2ccccc12)C(=O)NCC(=O)O)[C@@H](C)CC (stereo partly shown) [compound 128] (HELM PEPTIDE1{M.W.I.L.I.S.[CC(Cc1ccccc1)(N[*:1])C(=O)[*:2]].W.G}$$$$V2.0) | 132 | 0.4 to 1 | 7.5 to 15 | 2.15
12 | CC[C@H](C)[C@H](NC(=O)[C@H](CC(C)C)NC(=O)[C@H](Cc1ccccc1)NC(=O)[C@H](Cc1c[nH]c2ccccc12)NC(=O)[C@H](CCSC)NC(=O)[C@H](CCCNC(=N)N)NC(=O)[C@H](CO)NC(=O)[C@@H](N)CCSC)C(=O)N[C@@H](CO)C(=O)N[C@@H](Cc1ccccc1)C(=O)N[C@@H](CCCNC(=N)N)C(=O)NCC(=O)O [compound 69] (H-MSRMWFLISFRG-OH) | 99.7 | < 0.4 | > 30 | 1.64
13 | CC[C@H](C)[C@H](NC(=O)[C@H](CC(C)C)NC(=O)[C@H](Cc1ccccc1)NC(=O)[C@H](Cc1c[nH]c2ccccc12)NC(=O)[C@H](CCSC)NC(=O)[C@H](CCCNC(=N)N)NC(=O)[C@H](CO)NC(=O)[C@@H](N)CCCNC(=N)N)C(=O)N[C@@H](CO)C(=O)N[C@@H](Cc1ccccc1)C(=O)N[C@@H](Cc1c[nH]c2ccccc12)C(N)=O [compound 84] (H-RSRMWFLISFW-NH2) | 88.6 | > 30 | > 30 | 
14 | CCCCCC[C@H](N)C(=O)N[C@@H](Cc1c[nH]c2ccccc12)C(=O)N[C@@H](Cc1ccccc1)C(=O)N[C@@H](CC(C)C)C(=O)N[C@H](C(=O)N[C@@H](CS)C(=O)N[C@@H](Cc1ccccc1)C(=O)N[C@@H](Cc1c[nH]c2ccccc12)C(=O)NCC(=O)O)[C@@H](C)CC [compound 139] (HELM PEPTIDE1{[CCCCCC[C@H](N)C(=O)[*:2]].W.F.L.I.C.F.W.G}$$$$V2.0) | 99.5 | > 30 | > 30 | 

— patent US12441768B2, “Compositions and methods for treating endometriosis” (EndoMet Biosciences, Inc., priority 2018, dated 2025)
